This assay has as its system senescent MCF7 cells. Nature of the assay: Senolytic activity on doxorubicin-induced senescent MCF7 cells (crystal violet cell survival). To be noted: 72 h treatment; vitamin C and palmitic acid administered alone at the same doses investigated. Format: cell-based, human. The protocol: Briefly, senescence of MCF7 human mammary epithelium cells (human breast adenocarcinoma cells, ATCC® HTB-22™) was induced in vitro by treatment with doxorubicin (for 24 h), at a non-apoptotic concentration (200 nM), and subsequent cell recovery (in optimal culture medium, without treatments) for 10 days. The successful conversion to the senescent cell phenotype was confirmed by morphological changes (flattening and cell enlargement) and positivity for lysosomal beta-galactosidase (β-GAL). The SA-β-GAL (senescence-associated p-GAL) senescence assay was performed with the SA-β-Gal Staining Kit (Cell Signaling Technology, Inc., Danvers, MA). In this case, after fixation with […] for 15 min at room temperature, the senescent cells were quantified by calculating the percentage of SA-β-GAL positive cells (colored blue) present in culture, examining ≥200 cells per well with the phase contrast microscope EVOS XL Cell Imaging System (Thermo Fisher; objective, 40×). […] At the end of the treatments, cell survival was quantified by crystal violet staining. […] After further washing with water (3×), 100 μl of acetic acid (10%) were added per well and the absorbance (λ=590 nm) measured with a Synergy spectrophotometer (AHSI). […] Senolytic activity was expressed as % of senescent cells eliminated with respect to the control condition (DMSO). […]

Consider `CCCCCCCCCCCCCCCC(=O)O` [palmitic acid], for which the “senolytic effects (in words)” value is reported as “absence of significant senolytic effects”.

With `O=C1O[C@H]([C@@H](O)CO)C(O)=C1O` [vitamin C, L-Ascorbic Acid], the “senolytic effects (in words)” value is “absence of significant senolytic effects”.

Values taken from US20240024280A1, “SENOTHERAPEUTIC SUBSTANCE” (BIONEXA S.R.L, priority 2020, published 2024).
